Results from patent publication US20220089575A1, “FARNESOID X RECEPTOR AGONISTS AND USES THEREOF” (Metacrine, Inc., priority 2017, published 2022).

These molecules were tested against T1, hFXR (Homo sapiens, UniProt Q96RI1) (assay: In Vitro FXR Assay (TK): TK-ECRE-luc reporter in transfected CV-1 cells). Details: 18 hrs, luminescence, maximum efficacy of <25% of the Fexarmine control classified as '+'.
T1 construct: expressed in transfected cells; host or cells: CV-1 cells
T1 sequence (Q96RI1 1-486): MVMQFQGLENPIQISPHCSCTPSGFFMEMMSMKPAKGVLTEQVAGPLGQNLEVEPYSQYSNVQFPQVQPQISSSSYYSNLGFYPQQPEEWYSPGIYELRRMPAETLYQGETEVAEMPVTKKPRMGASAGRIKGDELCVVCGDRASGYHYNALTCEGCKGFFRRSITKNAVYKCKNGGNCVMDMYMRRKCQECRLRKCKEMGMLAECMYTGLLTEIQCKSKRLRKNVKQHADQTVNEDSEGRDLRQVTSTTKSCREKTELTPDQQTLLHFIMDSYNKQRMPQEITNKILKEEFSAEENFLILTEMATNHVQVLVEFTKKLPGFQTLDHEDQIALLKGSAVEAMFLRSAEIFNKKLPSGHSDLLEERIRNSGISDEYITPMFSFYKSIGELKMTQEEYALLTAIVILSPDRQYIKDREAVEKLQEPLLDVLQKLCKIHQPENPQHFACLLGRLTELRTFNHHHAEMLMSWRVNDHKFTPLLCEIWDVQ
T1 sequence (P19793 1-462 partner): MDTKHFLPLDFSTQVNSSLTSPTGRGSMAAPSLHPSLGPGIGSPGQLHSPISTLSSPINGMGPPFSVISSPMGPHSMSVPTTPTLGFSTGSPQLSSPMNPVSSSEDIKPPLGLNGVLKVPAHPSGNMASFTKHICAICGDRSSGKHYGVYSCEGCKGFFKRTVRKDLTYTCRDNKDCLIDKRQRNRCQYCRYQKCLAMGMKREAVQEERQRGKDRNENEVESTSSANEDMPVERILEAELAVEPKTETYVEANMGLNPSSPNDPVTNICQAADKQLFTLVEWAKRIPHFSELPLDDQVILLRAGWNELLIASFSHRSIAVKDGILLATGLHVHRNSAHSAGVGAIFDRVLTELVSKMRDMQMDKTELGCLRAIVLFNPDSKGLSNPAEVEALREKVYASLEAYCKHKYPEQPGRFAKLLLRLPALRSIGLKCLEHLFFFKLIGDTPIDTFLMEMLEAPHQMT
Type: cell-based
Summary of the method: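 CV-1 cells transiently co-transfected with hFXR, hRXR, TK-ECRE-luc and pCMX-YFP plasmids in charcoal-stripped serum medium. Serially diluted compounds added, cells incubated 18 h at 37° C, then lysed and luminescence read.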

EC50 [nM] | Structure (SMILES)
≤ 250 | COc1ccc(C23CCC(CN(c4cc(-c5coc(C6CC6)n5)ccn4)C(=O)[C@H]4CC[C@H](CC(=O)O)CC4)(CC2)CC3)cc1C [Compound 21, trans-2-(4-((4-(2-Cyclopropyloxazol-4-yl)pyridin-2-yl)((4-(4-methoxy-3-methylphenyl)bicyclo[2.2.2]octan-1-yl)methyl)carbamoyl)cyclohexyl) acetic acid]
≤ 250 | COc1ccc([C@H]2CC[C@H](CN(c3cc(-c4coc(C5CC5)n4)ccn3)C(=O)[C@H]3CC[C@H](OC(=O)N4CC(O)C4)CC3)CC2)nc1C [Compound 7, trans-4-((4-(2-Cyclopropyloxazol-4-yl)pyridine-2-yl)((trans-4-(5-methoxy-6-methylpyridin-2-yl)cyclohexyl)methyl)carbamoyl)cyclohexyl 3-hydroxyazetidine-1-carboxylate]
≤ 250 | COc1ccc([C@H]2CC[C@H](CN(c3cccc(-c4cnn(C5CC5)c4)c3)C(=O)[C@H]3CC[C@H](OC(=O)N4CCC4)CC3)CC2)cc1C [Compound 7.31, trans-4-((3-(1-Cyclopropyl-1H-pyrazol-4-yl)phenyl)((trans-4-(4-methoxy-3-methylphenyl)cyclohexyl)methyl)carbamoyl)cyclohexyl azetidine-1-carboxylate]
≤ 250 | CNC(=O)O[C@H]1CC[C@H](C(=O)N(C[C@H]2CC[C@H](c3ccc(OC)c(C)n3)CC2)c2cccc(-c3cnn(C4CCC4)c3)c2)CC1 [Compound 5.21, trans-4-((3-(1-Cyclobutyl-1H-pyrazol-4-yl)phenyl)((trans-4-(5-methoxy-6-methylpyridin-2-yl)cyclohexyl)methyl)carbamoyl)cyclohexyl methylcarbamate]
≤ 250 | COc1ncc(-c2cccc(N(C[C@H]3CC[C@H](c4ccc(OC)c(C)c4)CC3)C(=O)C34CCC(C(=O)O)(CC3)CC4)c2)s1 [Compound 17.02, 4-(((trans-4-(4-Methoxy-3-methylphenyl)cyclohexyl)methyl)(3-(2-methoxythiazol-5-yl)phenyl)carbamoyl)bicyclo[2.2.2]octane-1-carboxylic acid]
≤ 250 | CNC(=O)O[C@H]1CC[C@H](C(=O)N(C[C@H]2CC[C@H](c3ccc(OC)c(C#N)c3)CC2)c2cc(-c3cnn(C(C)C)c3)ccn2)CC1 [Compound 5.18, trans-4-(((trans-4-(3-Cyano-4-methoxyphenyl)cyclohexyl)methyl)(4-(1-isopropyl-1H-pyrazol-4-yl)pyridin-2-yl)carbamoyl)cyclohexyl methylcarbamate]
≤ 250 | CNC(=O)O[C@H]1CC[C@H](C(=O)N(C[C@H]2CC[C@H](c3ccc(OC)c(C#N)c3)CC2)c2cc(-c3coc(C(C)C)n3)ccn2)CC1 [Compound 5.45, trans-4-(((trans-4-(3-Cyano-4-methoxyphenyl)cyclohexyl)methyl)(4-(2-isopropyloxazol-4-yl)pyridine-2-yl)carbamoyl)cyclohexyl methylcarbamate]
≤ 250 | CNC(=O)O[C@H]1CC[C@H](C(=O)N(C[C@H]2CC[C@H](c3ccc(OC)c(C)c3)CC2)c2cccc(-c3cnc(C4CC4)s3)c2)CC1 [Compound 1.01, trans-4-((3-(2-Cyclopropylthiazol-5-yl)phenyl)((trans-4-(4-methoxy-3-methylphenyl)cyclohexyl)methyl)carbamoyl)cyclohexyl methylcarbamate]
≤ 250 | COc1ccc([C@H]2CC[C@H](CN(c3cccc(-c4cnn(C5CC5)c4)c3)C(=O)[C@H]3CC[C@H](NC(=O)OCCO)CC3)CC2)cc1C [Compound 26.05, 2-Hydroxyethyl (trans-4-((3-(1-cyclopropyl-1H-pyrazol-4-yl)phenyl)((trans-4-(4-methoxy-3-methylphenyl)cyclohexyl)methyl)carbamoyl)cyclohexyl)carbamate]
≤ 250 | COC(=O)NC[C@H]1CC[C@H](C(=O)N(C[C@H]2CC[C@H](c3ccc(OC)c(C)n3)CC2)c2cc(-c3coc(C4CC4)n3)ccn2)CC1 [Compound 26.27, Methyl ((trans-4-((4-(2-cyclopropyloxazol-4-yl)pyridin-2-yl)((trans-4-(5-methoxy-6-methylpyridin-2-yl)cyclohexyl)methyl)carbamoyl)cyclohexyl)methyl)carbamate]
≤ 250 | COc1ccc([C@H]2CC[C@H](CN(c3cc(-c4coc(C5CC5)n4)ccn3)C(=O)[C@H]3CC[C@H](CNS(C)(=O)=O)CC3)CC2)nc1C [Compound 26.26, trans-N-(4-(2-Cyclopropyloxazol-4-yl)pyridin-2-yl)-N-((trans-4-(5-methoxy-6-methylpyridin-2-yl)cyclohexyl)methyl)-4-(methylsulfonamidomethyl) cyclohexanecarboxamide]
≤ 250 | CN(C)c1ccc([C@H]2CC[C@H](CN(c3cccc(-c4coc(C5CC5)n4)c3)C(=O)[C@H]3CC[C@H](C(=O)O)CC3)CC2)cn1 [Compound 18.04, trans-4-((3-(2-Cyclopropyloxazol-4-yl)phenyl)((trans-4-(6-(dimethylamino)pyridine-3-yl)cyclohexyl)methyl)carbamoyl) cyclohexanecarboxylic acid]
≤ 250 | COc1ccc([C@H]2CC[C@H](CN(c3cc(-c4cnc(C5CC5)s4)ccn3)C(=O)[C@H]3CC[C@H](OC(=O)N4CC(O)C4)CC3)CC2)cc1C [Compound 7.03, trans-4-((4-(2-Cyclopropylthiazol-5-yl)pyridin-2-yl)((trans-4-(4-methoxy-3-methylphenyl)cyclohexyl)methyl)carbamoyl)cyclohexyl 3-hydroxyazetidine-1-carboxylate]
≤ 250 | COc1ccc([C@H]2CC[C@H](CN(c3cccc(-c4cnc(C5CC5)s4)c3)C(=O)[C@H]3CC[C@H](NC(=O)COCCCO)CC3)CC2)cc1C [Compound 32.03, trans-N-(3-(2-Cyclopropylthiazol-5-yl)phenyl)-4-(2-(3-hydroxypropoxy)acetamido)-N-((trans-4-(4-methoxy-3-methylphenyl)cyclohexyl)methyl)cyclohexanecarboxamide]
≤ 250 | CCNC(=O)O[C@H]1CC[C@H](C(=O)N(C[C@H]2CC[C@H](c3ccc(OC)c(C#N)n3)CC2)c2cc(-c3cnn(C(C)C)c3)ccn2)CC1 [Compound 5.29, trans-4-(((trans-4-(6-Cyano-5-methoxypyridin-2-yl)cyclohexyl)methyl)(4-(1-isopropyl-1H-pyrazol-4-yl)pyridin-2-yl)carbamoyl)cyclohexyl ethylcarbamate]
≤ 250 | COc1ccc([C@H]2CC[C@H](CN(c3cccc(-c4cnc(C(C)C)s4)c3)C(=O)[C@H]3CC[C@H](OC(=O)NCCO)CC3)CC2)nc1C [Compound 6.04, trans-4-((3-(2-Isopropylthiazol-5-yl)phenyl)((trans-4-(5-methoxy-6-methylpyridin-2-yl)cyclohexyl)methyl)carbamoyl)cyclohexyl (2-hydroxyethyl)carbamate]
≤ 250 | COc1ccc([C@H]2CC[C@H](CN(c3cccc(-c4cnc(C5CC5)s4)c3)C(=O)[C@H]3CC[C@H](C(=O)OC)CC3)CC2)nc1C#N [Compound 18.09, trans-Methyl 4-(((trans-4-(6-cyano-5-methoxypyridin-2-yl)cyclohexyl)methyl)(3-(2-cyclopropylthiazol-5-yl)phenyl)carbamoyl) cyclohexanecarboxylate]
≥ 1000 | COc1ccc([C@H]2CC[C@H](CN(c3cccc(-c4cnc(C5CC5)s4)c3)C(=O)[C@H]3CC[C@H](NC(=O)C4CNC4)CC3)CC2)cc1C [Compound 27.06, N-(trans-4-((3-(2-Cyclopropylthiazol-5-yl)phenyl)((trans-4-(4-methoxy-3-methylphenyl)cyclohexyl)methyl)carbamoyl)cyclohexyl)azetidine-3-carboxamide]
≤ 250 | COc1ccc([C@H]2CC[C@H](CN(c3cccc(-c4cnc(C5CC5)s4)c3)C(=O)[C@H]3CC[C@H](NC(=O)C(C)(C)O)CC3)CC2)cc1C [Compound 27, trans-N-(3-(2-Cyclopropylthiazol-5-yl)phenyl)-4-(2-hydroxy-2-methylpropanamido)-N-((trans-4-(4-methoxy-3-methylphenyl)cyclohexyl)methyl)cyclohexanecarboxamide]
≤ 250 | COc1ccc([C@H]2CC[C@H](CN(c3cccc(-c4cnc(C5CC5)s4)c3)C(=O)[C@H]3CC[C@H](NC(=O)CNC(C)=O)CC3)CC2)cc1C [Compound 31.09, trans-4-(2-Acetamidoacetamido)-N-(3-(2-cyclopropylthiazol-5-yl)phenyl)-N-((trans-4-(4-methoxy-3-methylphenyl)cyclohexyl)methyl)cyclohexanecarboxamide]
